According to the supplement of paper PMC10307832:

Compound: CCN1CCN(c2ccc(Nc3cc(N(C)C(=O)Nc4c(Cl)c(OC)cc(OC)c4Cl)ncn3)cc2)CC1 [BGJ398] + CC(C)C[C@H](NC(=O)[C@H](Cc1ccccc1)NC(=O)c1cnccn1)B(O)O [Bortezomib] (partner 0.002 µM)
Test: relative viability (nuclei count vs DMSO), 5 days (fraction); higher = more cells survive
Details: first compound 1 µM
In short: (§1)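 Relative viability equals treated-well nuclei counts divided by vehicle-well nuclei counts. Counts came from 4× images of lung cancer cell lines grown in 1536-well plates for 5 days after pin-tool dosing on the day after seeding. Dosing used one drug alone or a fixed anchor-drug dose plus five library-drug doses (not always all listed) in √10 steps, and values are medians of duplicate plates.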

Going from RERF-LC-KJ to NCI-H650, the relative viability falls from 1.18 to 0.627.

Cell Line PC-3 [JPC-3] has a relative viability of 0.765.

Compound: CCN1CCN(c2ccc(Nc3cc(N(C)C(=O)Nc4c(Cl)c(OC)cc(OC)c4Cl)ncn3)cc2)CC1 [BGJ398] + Cc1nc(Nc2ncc(C(=O)Nc3c(C)cccc3Cl)s2)cc(N2CCN(CCO)CC2)n1 [Dasatinib] (partner 0.075 µM)
Test: as above
Details: first compound 0.01 µM
In short: as §1

Compared with CAL-12T, NCI-H1651 is lower in relative viability: 0.534 for the first, 0.48 for the second.

Going from EPLC-272H to NCI-H2228, the relative viability rises from 0.44 to 0.471.

First: NCI-H1355
Second: NCI-H3122
The relative viability of the first is lower: 0.658 for the first, 0.761 for the second.

First: NCI-H1437
Second: NCI-H1755
The relative viability of the first is higher: 0.484 for the first, 0.406 for the second.

First: NCI-H2023
Second: HCC-15
The relative viability of the first is lower: 0.517 for the first, 0.648 for the second.

Compared with PC-14, EKVX is higher in relative viability: 0.294 for the first, 0.528 for the second.

First: LC-2-ad
Second: NCI-H1975
The relative viability of the first is higher: 0.572 for the first, 0.359 for the second.

Compared with RERF-LC-KJ, NCI-H650 is lower in relative viability: 0.655 for the first, 0.414 for the second.

Cell Line PC-3 [JPC-3] has a relative viability of 0.949.

Same assay, conditions: first compound 0.03162 µM

First: CAL-12T
Second: NCI-H1651
The relative viability of the first is higher: 0.554 for the first, 0.416 for the second.

Compared with EPLC-272H, NCI-H2228 is higher in relative viability: 0.303 for the first, 0.498 for the second.

Going from NCI-H1355 to NCI-H3122, the relative viability rises from 0.713 to 0.833.

Going from NCI-H1437 to NCI-H1755, the relative viability rises from 0.444 to 0.464.

Compared with NCI-H2023, HCC-15 is higher in relative viability: 0.537 for the first, 0.645 for the second.

Going from PC-14 to LC-2-ad, the relative viability rises from 0.0382 to 0.756.

Compared with NCI-H1975, RERF-LC-KJ is higher in relative viability: 0.449 for the first, 0.933 for the second.

For NCI-H650, the relative viability was 0.515.

Same assay, conditions: first compound 0.1 µM

First: CAL-12T
Second: NCI-H1651
The relative viability of the first is lower: 0.443 for the first, 0.482 for the second.

Compared with EPLC-272H, NCI-H2228 is higher in relative viability: 0.286 for the first, 0.516 for the second.

First: NCI-H1355
Second: NCI-H3122
The relative viability of the first is lower: 0.74 for the first, 0.923 for the second.

Compared with NCI-H1437, NCI-H1755 is higher in relative viability: 0.373 for the first, 0.45 for the second.

Compared with NCI-H2023, HCC-15 is higher in relative viability: 0.582 for the first, 0.631 for the second.

Compared with PC-14, EKVX is higher in relative viability: 0.234 for the first, 0.807 for the second.

Going from LC-2-ad to NCI-H1975, the relative viability falls from 0.566 to 0.378.

First: RERF-LC-KJ
Second: NCI-H650
The relative viability of the first is higher: 0.753 for the first, 0.526 for the second.

With PC-3 [JPC-3] the relative viability was 1.02.

Same assay, conditions: first compound 0.3162 µM

Going from CAL-12T to NCI-H1651, the relative viability falls from 0.386 to 0.256.

First: EPLC-272H
Second: NCI-H2228
The relative viability of the first is lower: 0.321 for the first, 0.567 for the second.

Compared with NCI-H1355, NCI-H3122 is higher in relative viability: 0.735 for the first, 0.785 for the second.

First: NCI-H1437
Second: NCI-H1755
The relative viability of the first is higher: 0.42 for the first, 0.411 for the second.

Going from NCI-H2023 to HCC-15, the relative viability rises from 0.489 to 0.639.

Compared with PC-14, EKVX is higher in relative viability: 0.141 for the first, 0.539 for the second.

Going from LC-2-ad to NCI-H1975, the relative viability falls from 0.538 to 0.34.

Going from RERF-LC-KJ to NCI-H650, the relative viability falls from 0.858 to 0.45.

PC-3 [JPC-3] showed a relative viability of 0.854.

Same assay, conditions: first compound 1 µM

Going from CAL-12T to NCI-H1651, the relative viability rises from 0.325 to 0.333.

Compared with EPLC-272H, NCI-H2228 is higher in relative viability: 0.32 for the first, 0.423 for the second.

First: NCI-H1355
Second: NCI-H3122
The relative viability of the first is lower: 0.507 for the first, 0.991 for the second.

Compared with NCI-H1437, NCI-H1755 is lower in relative viability: 0.424 for the first, 0.313 for the second.

First: NCI-H2023
Second: HCC-15
The relative viability of the first is lower: 0.438 for the first, 0.576 for the second.

First: PC-14
Second: EKVX
The relative viability of the first is lower: 0.317 for the first, 0.565 for the second.

First: LC-2-ad
Second: NCI-H1975
The relative viability of the first is higher: 0.433 for the first, 0.316 for the second.
